According to paper PMC6544242, “Development and validation of a multiplex UHPLC-MS/MS method for the determination of the investigational antibiotic against multi-resistant tuberculosis macozinone (PBTZ169) and five active metabolites in human plasma” (PLoS ONE, 2019):

Test system: not given
Assay: not given
Details: human, 1 h, 10 ng/mL

SMILES | % from t0 [%]
O=c1nc(N2CCN(CC3CCCCC3O)CC2)sc2c([N+](=O)[O-])cc(C(F)(F)F)cc12 (stereo not drawn) [Met 2-OH] | 1

Same assay, conditions: human, 1 h, 20 ng/mL

SMILES | % from t0 [%]
O=c1nc(N2CCN(CC3CCCCC3O)CC2)sc2c([N+](=O)[O-])cc(C(F)(F)F)cc12 (stereo not drawn) [Met 2-OH] | 1

Same assay, conditions: human, 1 h, 50 ng/mL

SMILES | % from t0 [%]
O=c1nc(N2CCN(CC3CCCCC3O)CC2)sc2c([N+](=O)[O-])cc(C(F)(F)F)cc12 (stereo not drawn) [Met 2-OH] | -10

Same assay, conditions: human, 1 h, 100 ng/mL

SMILES | % from t0 [%]
O=c1nc(N2CCN(CC3CCCCC3O)CC2)sc2c([N+](=O)[O-])cc(C(F)(F)F)cc12 (stereo not drawn) [Met 2-OH] | 2

Same assay, conditions: human, 1 h, 200 ng/mL

SMILES | % from t0 [%]
O=c1nc(N2CCN(CC3CCCCC3O)CC2)sc2c([N+](=O)[O-])cc(C(F)(F)F)cc12 (stereo not drawn) [Met 2-OH] | -2

Same assay, conditions: human, 1 h, 500 ng/mL

SMILES | % from t0 [%]
O=c1nc(N2CCN(CC3CCCCC3O)CC2)sc2c([N+](=O)[O-])cc(C(F)(F)F)cc12 (stereo not drawn) [Met 2-OH] | -9

Same assay, conditions: human, 2 h, 10 ng/mL

SMILES | % from t0 [%]
O=c1nc(N2CCN(CC3CCCCC3O)CC2)sc2c([N+](=O)[O-])cc(C(F)(F)F)cc12 (stereo not drawn) [Met 2-OH] | -1

Same assay, conditions: human, 2 h, 20 ng/mL

SMILES | % from t0 [%]
O=c1nc(N2CCN(CC3CCCCC3O)CC2)sc2c([N+](=O)[O-])cc(C(F)(F)F)cc12 (stereo not drawn) [Met 2-OH] | -1

Same assay, conditions: human, 2 h, 50 ng/mL

SMILES | % from t0 [%]
O=c1nc(N2CCN(CC3CCCCC3O)CC2)sc2c([N+](=O)[O-])cc(C(F)(F)F)cc12 (stereo not drawn) [Met 2-OH] | -17

Same assay, conditions: human, 2 h, 100 ng/mL

SMILES | % from t0 [%]
O=c1nc(N2CCN(CC3CCCCC3O)CC2)sc2c([N+](=O)[O-])cc(C(F)(F)F)cc12 (stereo not drawn) [Met 2-OH] | -2

Same assay, conditions: human, 2 h, 200 ng/mL

SMILES | % from t0 [%]
O=c1nc(N2CCN(CC3CCCCC3O)CC2)sc2c([N+](=O)[O-])cc(C(F)(F)F)cc12 (stereo not drawn) [Met 2-OH] | -5

Same assay, conditions: human, 2 h, 500 ng/mL

SMILES | % from t0 [%]
O=c1nc(N2CCN(CC3CCCCC3O)CC2)sc2c([N+](=O)[O-])cc(C(F)(F)F)cc12 (stereo not drawn) [Met 2-OH] | -15

Same assay, conditions: human, 4 h, 10 ng/mL

SMILES | % from t0 [%]
O=c1nc(N2CCN(CC3CCCCC3O)CC2)sc2c([N+](=O)[O-])cc(C(F)(F)F)cc12 (stereo not drawn) [Met 2-OH] | -3

Same assay, conditions: human, 4 h, 20 ng/mL

SMILES | % from t0 [%]
O=c1nc(N2CCN(CC3CCCCC3O)CC2)sc2c([N+](=O)[O-])cc(C(F)(F)F)cc12 (stereo not drawn) [Met 2-OH] | -2

Same assay, conditions: human, 4 h, 50 ng/mL

SMILES | % from t0 [%]
O=c1nc(N2CCN(CC3CCCCC3O)CC2)sc2c([N+](=O)[O-])cc(C(F)(F)F)cc12 (stereo not drawn) [Met 2-OH] | -30

Same assay, conditions: human, 4 h, 100 ng/mL

SMILES | % from t0 [%]
O=c1nc(N2CCN(CC3CCCCC3O)CC2)sc2c([N+](=O)[O-])cc(C(F)(F)F)cc12 (stereo not drawn) [Met 2-OH] | -3

Same assay, conditions: human, 4 h, 200 ng/mL

SMILES | % from t0 [%]
O=c1nc(N2CCN(CC3CCCCC3O)CC2)sc2c([N+](=O)[O-])cc(C(F)(F)F)cc12 (stereo not drawn) [Met 2-OH] | -6

Same assay, conditions: human, 4 h, 500 ng/mL

SMILES | % from t0 [%]
O=c1nc(N2CCN(CC3CCCCC3O)CC2)sc2c([N+](=O)[O-])cc(C(F)(F)F)cc12 (stereo not drawn) [Met 2-OH] | -26

Test system: Mycobacterium tuberculosis
Assay: not given
Details: not measured in this paper; cited from earlier work

SMILES | anti-TB activity in vitro (active / inactive)
O=c1nc(N2CCN(CC3CCCCC3O)CC2)sc2c([N+](=O)[O-])cc(C(F)(F)F)cc12 (stereo not drawn) [Met 2-OH] | active

Test system: not given
Assay: not given
Details: human, 6 h, 0.5 ng/mL

SMILES | % from freshly processed samples (n=2) [%]
O=c1nc(N2CCN(CC3CCCCC3O)CC2)sc2c([N+](=O)[O-])cc(C(F)(F)F)cc12 (stereo not drawn) [Met 2-OH] | -16

Same assay, conditions: human, 6 h, 1 ng/mL

SMILES | % from freshly processed samples (n=2) [%]
O=c1nc(N2CCN(CC3CCCCC3O)CC2)sc2c([N+](=O)[O-])cc(C(F)(F)F)cc12 (stereo not drawn) [Met 2-OH] | -6

Same assay, conditions: human, 6 h, 2 ng/mL

SMILES | % from freshly prepared samples [%] | % from freshly processed samples (n=2) [%]
O=c1nc(N2CCN(CC3CCCCC3O)CC2)sc2c([N+](=O)[O-])cc(C(F)(F)F)cc12 (stereo not drawn) [Met 2-OH] | -8 | -6

Same assay, conditions: human, 6 h, 50 ng/mL

SMILES | % from freshly processed samples (n=2) [%]
O=c1nc(N2CCN(CC3CCCCC3O)CC2)sc2c([N+](=O)[O-])cc(C(F)(F)F)cc12 (stereo not drawn) [Met 2-OH] | -4

Same assay, conditions: human, 6 h, 150 ng/mL

SMILES | % from freshly prepared samples [%]
O=c1nc(N2CCN(CC3CCCCC3O)CC2)sc2c([N+](=O)[O-])cc(C(F)(F)F)cc12 (stereo not drawn) [Met 2-OH] | -4

Same assay, conditions: human, 6 h, 500 ng/mL

SMILES | % from freshly processed samples (n=2) [%]
O=c1nc(N2CCN(CC3CCCCC3O)CC2)sc2c([N+](=O)[O-])cc(C(F)(F)F)cc12 (stereo not drawn) [Met 2-OH] | -3

Same assay, conditions: human, 6 h, 1000 ng/mL

SMILES | % from freshly processed samples (n=2) [%]
O=c1nc(N2CCN(CC3CCCCC3O)CC2)sc2c([N+](=O)[O-])cc(C(F)(F)F)cc12 (stereo not drawn) [Met 2-OH] | 0

Same assay, conditions: human, 6 h, 1500 ng/mL

SMILES | % from freshly prepared samples [%]
O=c1nc(N2CCN(CC3CCCCC3O)CC2)sc2c([N+](=O)[O-])cc(C(F)(F)F)cc12 (stereo not drawn) [Met 2-OH] | -4

Same assay, conditions: human, 6 h, 2000 ng/mL

SMILES | % from freshly processed samples (n=2) [%]
O=c1nc(N2CCN(CC3CCCCC3O)CC2)sc2c([N+](=O)[O-])cc(C(F)(F)F)cc12 (stereo not drawn) [Met 2-OH] | -2

Test system: not given
Assay: not given
Details: processed extract sample, 4°C, 24h, level H (QC 1500 ng/mL)

SMILES | % from t0 [%]
O=c1nc(N2CCN(CC3CCCCC3O)CC2)sc2c([N+](=O)[O-])cc(C(F)(F)F)cc12 (stereo not drawn) [Met 2-OH] | -4

Same assay, conditions: processed extract sample, 4°C, 24h, level L (QC 2 ng/mL)

SMILES | % from t0 [%]
O=c1nc(N2CCN(CC3CCCCC3O)CC2)sc2c([N+](=O)[O-])cc(C(F)(F)F)cc12 (stereo not drawn) [Met 2-OH] | -16

Same assay, conditions: processed extract sample, 4°C, 24h, level M (QC 150 ng/mL)

SMILES | % from t0 [%]
O=c1nc(N2CCN(CC3CCCCC3O)CC2)sc2c([N+](=O)[O-])cc(C(F)(F)F)cc12 (stereo not drawn) [Met 2-OH] | -10

Same assay, conditions: processed extract sample, RT, 24h, level H (QC 1500 ng/mL)

SMILES | % from t0 [%]
O=c1nc(N2CCN(CC3CCCCC3O)CC2)sc2c([N+](=O)[O-])cc(C(F)(F)F)cc12 (stereo not drawn) [Met 2-OH] | -18

Same assay, conditions: processed extract sample, RT, 24h, level L (QC 2 ng/mL)

SMILES | % from t0 [%]
O=c1nc(N2CCN(CC3CCCCC3O)CC2)sc2c([N+](=O)[O-])cc(C(F)(F)F)cc12 (stereo not drawn) [Met 2-OH] | -61

Same assay, conditions: processed extract sample, RT, 24h, level M (QC 150 ng/mL)

SMILES | % from t0 [%]
O=c1nc(N2CCN(CC3CCCCC3O)CC2)sc2c([N+](=O)[O-])cc(C(F)(F)F)cc12 (stereo not drawn) [Met 2-OH] | -39

Test system: not listed separately
Assay: Phase Ia clinical pharmacokinetic trial, plasma levels in healthy volunteers
Details: human
Procedure: The phase 1a clinical study assessing the safety and pharmacokinetics of PBTZ169 in healthy volunteers (NCT03423030), was performed at the Service of Clinical Pharmacology of the Lausanne University Hospital and was approved on 06.09.2017 (2017–01241) by the Ethics Committee of the Canton of Vaud (CER-VD) and on 17.11.2017 (2017DR1171) by Swissmedic. All volunteers gave their written informed consent.
The concentration measured in this plasma sample is 464 ng/mL, 147 ng/mL, 13 ng/mL, 12 ng/mL and 2 ng/mL for PBTZ169, Met 3-OH, Met 3-oxo, Met amino and Met 1-OH, respectively. […] Of note, measured plasma levels were multiplied by the factor 1.1 accounting for the blood 10:1 dilution due to citrate solution.

SMILES | detection in vivo in plasma
O=c1nc(N2CCN(CC3CCCCC3O)CC2)sc2c([N+](=O)[O-])cc(C(F)(F)F)cc12 (stereo not drawn) [Met 2-OH] | not detected
